The structures appear in SMILES notation. Several values for one entry are separate records, joined by “and”; a condition that tells them apart may be missing. Equal entries are not always repeated. Toxic doses and inconclusive results are not listed.

The text below walks through data of PubChem BioAssay AID256 (DTP/NCI, 2004).

This experiment concerns CD2F1 mice, L1210 leukemia ip, survival T/C. Description: NCI In Vivo Anticancer Drug Screen. Data for tumor model L1210 Leukemia (intraperitoneal) in CD2F1 (CDF1) mice. The settings on record: higher = longer survival. In a few lines: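 Read-out first: treated-group measurement over vehicle-control measurement, expressed as a ratio. Animals bore a transplanted tumor line and were dosed with compound or vehicle.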

The mark [1] stands for this setting: endpoint: mean survival time, dose: 100.0 mg/kg/injection, schedule: Q01DX009 (ip), vehicle: saline.
[2] abbreviates: endpoint: mean survival time, dose: 200.0 mg/kg/injection, schedule: Q01DX009 (ip), vehicle: saline.
The mark [3] stands for this setting: endpoint: mean survival time, dose: 6.25 mg/kg/injection, schedule: Q01DX009 (ip), vehicle: saline with Tween-80.
The mark [4] stands for this setting: endpoint: mean survival time, dose: 12.5 mg/kg/injection, schedule: Q01DX009 (ip), vehicle: saline with Tween-80.
Setting [5] is: endpoint: mean survival time, dose: 25.0 mg/kg/injection, schedule: Q01DX009 (ip), vehicle: saline with Tween-80.
[6] abbreviates: endpoint: mean survival time, dose: 50.0 mg/kg/injection, schedule: Q01DX009 (ip), vehicle: saline with Tween-80.
Where [7] appears, read: endpoint: mean survival time, dose: 100.0 mg/kg/injection, schedule: Q01DX009 (ip), vehicle: saline with Tween-80.
Setting [8] is: endpoint: mean survival time, dose: 200.0 mg/kg/injection, schedule: Q01DX009 (ip), vehicle: saline with Tween-80.
The mark [9] stands for this setting: endpoint: mean survival time, dose: 100.0 mg/kg/injection, schedule: Q01DX001 (ip), vehicle: saline.
Setting [10] is: endpoint: mean survival time, dose: 200.0 mg/kg/injection, schedule: Q01DX001 (ip), vehicle: saline.
Where [11] appears, read: endpoint: mean survival time, dose: 400.0 mg/kg/injection, schedule: Q01DX001 (ip), vehicle: saline.
Where [12] appears, read: endpoint: mean survival time, dose: 25.0 mg/kg/injection, schedule: Q01DX009 (ip), vehicle: other.
Where [13] appears, read: endpoint: mean survival time, dose: 50.0 mg/kg/injection, schedule: Q01DX009 (ip), vehicle: other.
The mark [14] stands for this setting: endpoint: mean survival time, dose: 100.0 mg/kg/injection, schedule: Q01DX009 (ip), vehicle: other.
Setting [15] is: endpoint: mean survival time, dose: 100.0 mg/kg/injection, schedule: Q04DX003 (ip), vehicle: saline with Tween-80.
Where [16] appears, read: endpoint: mean survival time, dose: 200.0 mg/kg/injection, schedule: Q04DX003 (ip), vehicle: saline with Tween-80.
[17] abbreviates: endpoint: mean survival time, dose: 400.0 mg/kg/injection, schedule: Q04DX003 (ip), vehicle: saline with Tween-80.
Where [18] appears, read: endpoint: mean survival time, dose: 400.0 mg/kg/injection, schedule: Q01DX009 (ip), vehicle: saline with Tween-80.
The mark [19] stands for this setting: endpoint: mean survival time, dose: 100.0 mg/kg/injection, schedule: Q01DX001 (ip), vehicle: saline with Tween-80.
[20] abbreviates: endpoint: mean survival time, dose: 200.0 mg/kg/injection, schedule: Q01DX001 (ip), vehicle: saline with Tween-80.
The mark [21] stands for this setting: endpoint: mean survival time, dose: 400.0 mg/kg/injection, schedule: Q01DX001 (ip), vehicle: saline with Tween-80.

As for `NNC(=O)CCCO`, the T/C is, setting by setting: under setting [1], 102 % of control; under setting [2], 101 % of control; (endpoint: mean survival time, dose: 400.0 mg/kg/injection, schedule: Q01DX009 (ip), vehicle: saline) 102 % of control.
Turning to `Cc1cc(O)c(O)c(C(C)(C)CC(C)(C)C)c1`, the T/C by setting is: (endpoint: mean survival time, dose: 12.5 mg/kg/injection, schedule: Q01DX009 (ip), vehicle: saline + alcohol) 100 % of control; (endpoint: mean survival time, dose: 25.0 mg/kg/injection, schedule: Q01DX009 (ip), vehicle: saline + alcohol) 97 % of control; (endpoint: mean survival time, dose: 50.0 mg/kg/injection, schedule: Q01DX009 (ip), vehicle: saline + alcohol) 103 % of control; (endpoint: mean survival time, dose: 100.0 mg/kg/injection, schedule: Q04DX003 (ip), vehicle: saline + alcohol) 105 % of control; (endpoint: mean survival time, dose: 200.0 mg/kg/injection, schedule: Q04DX003 (ip), vehicle: saline + alcohol) 103 % of control; (endpoint: mean survival time, dose: 400.0 mg/kg/injection, schedule: Q04DX003 (ip), vehicle: saline + alcohol) 100 % of control.
In the case of `NC(=S)/N=C\C(CC(O)C(O)C(O)CO)=N\NC(N)=S` (stereo unspecified), the T/C by setting is: under setting [3], 96 % of control; under setting [4], 96 % of control; under setting [5], 95 % of control and 100 % of control; under setting [6], 93 % of control and 101 % of control; under setting [7], 101 % of control; under setting [8], 86 % of control.
In the case of `O=C1C(n2ccc(=O)n(C(=O)c3ccccc3)c2=O)CCN1CCO` (stereo unspecified), the T/C under setting [9] is 102 % of control, the T/C under setting [10] is 100 % of control and the T/C under setting [11] was 102 % of control.
For the compound `O=P1(c2ccccc2)NCC(Br)CO1` (stereo unspecified), the T/C runs as follows: (endpoint: mean survival time, dose: 31.3 mg/kg/injection, schedule: Q01DX001 (ip), vehicle: other) 95 % of control; (endpoint: mean survival time, dose: 62.5 mg/kg/injection, schedule: Q01DX001 (ip), vehicle: other) 95 % of control; (endpoint: mean survival time, dose: 125.0 mg/kg/injection, schedule: Q01DX001 (ip), vehicle: other) 100 % of control; (endpoint: mean survival time, dose: 250.0 mg/kg/injection, schedule: Q01DX001 (ip), vehicle: other) 100 % of control; (endpoint: mean survival time, dose: 500.0 mg/kg/injection, schedule: Q01DX001 (ip), vehicle: other) 95 % of control.
Regarding `CCOC(=O)C1C(=O)NC(=O)N1Cc1ccccc1` (stereo unspecified), the T/C is, setting by setting: (endpoint: mean survival time, dose: 12.5 mg/kg/injection, schedule: Q01DX009 (ip), vehicle: other) 100 % of control; under setting [12], 104 % of control; under setting [13], 100 % of control; under setting [14], 97 % of control; (endpoint: mean survival time, dose: 200.0 mg/kg/injection, schedule: Q01DX009 (ip), vehicle: other) 100 % of control.
With `C=C(Cl)CN(CCCC(=O)O)c1ccccc1`, the T/C runs as follows: under setting [12], 95 % of control; under setting [13], 89 % of control; under setting [14], 97 % of control.
Turning to `C=C1C(=O)OC2CCCCCCC12` (stereo unspecified), the T/C (endpoint: mean survival time, dose: 50.0 mg/kg/injection, schedule: Q01DX009 (ip), vehicle: saline) is 102 % of control; the T/C under setting [1] is 97 % of control; the T/C under setting [2] was 100 % of control.
As for `COC(=O)C(Br)C1CCCCC1` (stereo unspecified), the T/C under setting [6] is 95 % of control; the T/C under setting [7] was 102 % of control; the T/C under setting [15] is 100 % of control; the T/C under setting [8] is 93 % of control; the T/C under setting [16] is 102 % of control.
Turning to `CN(C)C(=O)N(CCCl)N=O`, the T/C (endpoint: mean survival time, dose: 16.0 mg/kg/injection, schedule: Q01DX001 (ip), vehicle: other) was 176 % of control; the T/C (endpoint: mean survival time, dose: 20.0 mg/kg/injection, schedule: Q01DX001 (ip), vehicle: other) is 306 % of control; the T/C (endpoint: mean survival time, dose: 32.0 mg/kg/injection, schedule: Q01DX001 (ip), vehicle: other) is 570 % of control; the T/C (endpoint: mean survival time, dose: 40.0 mg/kg/injection, schedule: Q01DX001 (ip), vehicle: other) is 318 % of control.
With `CN(C)N=Nc1c(-c2cccs2)n[nH]c1C(F)(F)F`, the T/C reads like this: (endpoint: mean survival time, dose: 75.0 mg/kg/injection, schedule: Q01DX001 (ip), vehicle: other) 103 % of control; (endpoint: mean survival time, dose: 150.0 mg/kg/injection, schedule: Q01DX001 (ip), vehicle: other) 103 % of control; (endpoint: mean survival time, dose: 300.0 mg/kg/injection, schedule: Q01DX001 (ip), vehicle: other) 105 % of control.
Consider `O=C(COc1ccc(Cl)cc1)C1CSc2c(Cl)ccc(Cl)c21` (stereo unspecified), for which the T/C runs as follows: under setting [15], 92 % of control; under setting [16], 98 % of control; under setting [17], 101 % of control.
With `C1CC[N-]CC1.Oc1ccccc1C=NCCN=Cc1ccccc1O.[Co]`, the T/C is 109 % of control (endpoint: mean survival time, dose: 1.56 mg/kg/injection, schedule: Q04DX002 (ip), vehicle: saline with Tween-80) and 98 % of control (endpoint: mean survival time, dose: 3.13 mg/kg/injection, schedule: Q04DX002 (ip), vehicle: saline with Tween-80).
On to `S=C=NCCc1ccccc1`, for which the T/C is, setting by setting: (endpoint: mean survival time, dose: 3.12 mg/kg/injection, schedule: Q01DX009 (ip), vehicle: saline with Tween-80) 93 % of control; under setting [3], 92 % of control; under setting [4], 106 % of control; under setting [5], 104 % of control; under setting [6], 106 % of control.
On to `CCN(CC)CCNc1ccc(C)c2sc3ccc(O)cc3c(=O)c12`, for which the T/C reads like this: (endpoint: median survival time, dose: 12.0 mg/kg/injection, schedule: Q01DX009 (ip), vehicle: saline with Tween-80) 106 % of control; (endpoint: median survival time, dose: 12.5 mg/kg/injection, schedule: Q01DX009 (ip), vehicle: saline with Tween-80) 110 % of control; (endpoint: median survival time, dose: 25.0 mg/kg/injection, schedule: Q01DX009 (ip), vehicle: saline with Tween-80) 121 % of control; (endpoint: median survival time, dose: 50.0 mg/kg/injection, schedule: Q01DX009 (ip), vehicle: saline with Tween-80) 159 % of control; (endpoint: median survival time, dose: 200.0 mg/kg/injection, schedule: Q01DX009 (ip), vehicle: saline with Tween-80) 103 % of control.
On to `CCCCNc1cc(Nc2ccc(Br)cc2)nc(N)n1`, for which the T/C by setting is: under setting [6], 98 % of control; under setting [7], 97 % of control; under setting [8], 98 % of control.
With `CC(=O)Nc1ccc(OC(=O)Nc2ccc(F)c(Cl)c2)cc1`, the T/C by setting is: under setting [7], 98 % of control; under setting [8], 93 % of control; under setting [18], 110 % of control.
Regarding `CC1(C)C/C(=C\c2ccccc2[N+](=O)[O-])C(=O)c2ccccc21`, the T/C reads like this: (endpoint: mean survival time, dose: 100.0 mg/kg/injection, schedule: Q04DX003 (ip), vehicle: acetone) 92 % of control; (endpoint: mean survival time, dose: 200.0 mg/kg/injection, schedule: Q04DX003 (ip), vehicle: acetone) 90 % of control; (endpoint: mean survival time, dose: 400.0 mg/kg/injection, schedule: Q04DX003 (ip), vehicle: acetone) 93 % of control.
Regarding `Cc1ccc(S(=O)(=O)N(CCCc2c(C)nc(N)[nH]c2=O)Cc2cccc([N+](=O)[O-])c2)cc1`, the T/C is 92 % of control under setting [19], 96 % of control under setting [20] and 92 % of control under setting [21].
Regarding `OC1CCCCCCCCC1Cl` (stereo unspecified), the T/C runs as follows: under setting [7], 88 % of control; under setting [15], 94 % of control; under setting [16], 93 % of control; under setting [17], 96 % of control.
For the compound `O=S(=O)(/C=C/S(=O)(=O)c1ccccc1)c1ccccc1`, the T/C is, setting by setting: (endpoint: mean survival time, dose: 62.5 mg/kg/injection, schedule: Q01DX009 (ip), vehicle: Klucel (hydroxypropylcellulose) (HPC)) 97 % of control; (endpoint: mean survival time, dose: 125.0 mg/kg/injection, schedule: Q01DX009 (ip), vehicle: Klucel (hydroxypropylcellulose) (HPC)) 98 % of control.
With `Cc1ccc(NC(=O)c2ccccc2C(=O)O)c(C)c1`, the T/C is, setting by setting: under setting [7], 109 % of control; under setting [15], 95 % of control; under setting [8], 96 % of control; under setting [16], 109 % of control; under setting [18], 115 % of control; under setting [17], 103 % of control.
Consider `C=CCC1(C)C(OC(C)=O)/C(=C\c2ccco2)CC2(C)c3cc(OC)ccc3CCC21` (stereo unspecified), for which the T/C is, setting by setting: under setting [9], 101 % of control; under setting [10], 96 % of control; under setting [11], 96 % of control.
As for `ClC1(Cl)C2COCOCC21` (stereo unspecified), the T/C was 91 % of control under setting [19], 91 % of control under setting [20] and 95 % of control under setting [21].
